Source: patent US10947254B2, “Methods for treating ulcerative colitis using 3-((1R,3s,5S)-3-((7-((5-methyl-1H-pyrazol-3-yl)amino)-1,6-naphthyridin-5-yl)amino)-8-azabicyclo[3.2.1]octan-8-yl)propanenitrile” (priority 2015, dated 2021)

Tested on: IL-4 induced STAT6 phosphorylation in THP-1 human monocytic cells
Settings: THP-1 cells

## Cc1cc(Nc2nc(N[C@@H]3C[C@H]4CCC[C@@H](C3)N4C(=O)CN(C)C)c3cccnc3c2F)n[nH]1 [Example 8-15]
  THP-1 IL4 pIC50: C (C represents a pEC50 value <6.7 (EC50>200 nM))

## Cc1cc(Nc2cc3ncc(S(C)(=O)=O)cc3c(N[C@@H]3C[C@H]4CC[C@@H](C3)N4C(=O)CC#N)n2)n[nH]1 [Example 6-51]
  THP-1 IL4 pIC50: C (C represents a pEC50 value <6.7 (EC50>200 nM))

## C=CCOC(=O)N1[C@@H]2CCC[C@H]1C[C@H](Nc1nc(Nc3cc(C)[nH]n3)cc3ncccc13)C2 [Example 3-8]
  THP-1 IL4 pIC50: A (A represents a pEC50 value ≥7.5 (EC50≤32 nM))

## CCOC(=O)N1[C@@H]2CCC[C@H]1C[C@H](Nc1nc(Nc3cc(C)[nH]n3)cc3ncccc13)C2 [Example 3-6]
  THP-1 IL4 pIC50: A (A represents a pEC50 value ≥7.5 (EC50≤32 nM))

## COC(=O)c1cnc2cc(Nc3cc(C)[nH]n3)nc(N[C@@H]3C[C@H]4CC[C@@H](C3)N4CC(=O)OC(C)C)c2c1 [Example 6-41]
  THP-1 IL4 pIC50: A (A represents a pEC50 value ≥7.5 (EC50≤32 nM))

## COC(=O)c1cnc2cc(Nc3cc(C)[nH]n3)nc(N[C@@H]3C[C@H]4CC[C@@H](C3)N4C[C@H]3CCC(=O)O3)c2c1 [Example 6-46]
  THP-1 IL4 pIC50: C (C represents a pEC50 value <6.7 (EC50>200 nM))

## Cc1cc(Nc2cc3ncc(S(C)(=O)=O)cc3c(N[C@@H]3C[C@H]4CC[C@@H](C3)N4CCCF)n2)n[nH]1 [Example 6-55]
  THP-1 IL4 pIC50: C (C represents a pEC50 value <6.7 (EC50>200 nM))

## COC(=O)CCCN1[C@@H]2CC[C@H]1C[C@H](Nc1nc(Nc3cc(C)[nH]n3)cc3ncccc13)C2 [Example 1-3]
  THP-1 IL4 pIC50: C (C represents a pEC50 value <6.7 (EC50>200 nM))

## COC(=O)CCN1[C@@H]2CCC[C@H]1C[C@H](Nc1nc(Nc3cc(C)[nH]n3)cc3ncccc13)C2 [Example 1-33]
  THP-1 IL4 pIC50: C (C represents a pEC50 value <6.7 (EC50>200 nM))

## CNC(=O)CN1[C@@H]2CC[C@H]1C[C@H](Nc1nc(Nc3cc(C)[nH]n3)cc3ncc(C(=O)OC)cc13)C2 [Example 6-42]
  THP-1 IL4 pIC50: C (C represents a pEC50 value <6.7 (EC50>200 nM))

## COCCOC(=O)N1[C@@H]2CCC[C@H]1C[C@H](Nc1nc(Nc3cc(C)[nH]n3)cc3ncccc13)C2 [Example 3-9]
  THP-1 IL4 pIC50: A (A represents a pEC50 value ≥7.5 (EC50≤32 nM))

## COc1cnc2cc(Nc3cc(C)[nH]n3)nc(N[C@@H]3C[C@H]4CC[C@@H](C3)N4CCC#N)c2c1 [Example 6-11]
  THP-1 IL4 pIC50: A (A represents a pEC50 value ≥7.5 (EC50≤32 nM))

## Cc1cc(Nc2cc3ncccc3c(N[C@@H]3C[C@H]4CC[C@@H](C3)N4CC(=O)N[C@@H]3CCOC3=O)n2)n[nH]1 [Example 1-11]
  THP-1 IL4 pIC50: C (C represents a pEC50 value <6.7 (EC50>200 nM))

## COc1cnc2cc(Nc3cc(C)[nH]n3)nc(N[C@@H]3C[C@H]4CCC[C@@H](C3)N4C(=O)CN(C)C)c2c1 [Example 6-30]
  THP-1 IL4 pIC50: C (C represents a pEC50 value <6.7 (EC50>200 nM))

## C=CCS(=O)(=O)N1[C@@H]2CCC[C@H]1C[C@H](Nc1nc(Nc3cc(C)[nH]n3)cc3ncccc13)C2 [Example 4-22]
  THP-1 IL4 pIC50: A (A represents a pEC50 value ≥7.5 (EC50≤32 nM))

## CCC(C)C(=O)N1C2CCCC1CC(Nc1nc(Nc3cc(C)[nH]n3)cc3ncccc13)C2 (stereo not drawn) [Example 2-18]
  THP-1 IL4 pIC50: A (A represents a pEC50 value ≥7.5 (EC50≤32 nM))

## COC(=O)c1cnc2cc(Nc3cc(C)[nH]n3)nc(N[C@@H]3C[C@H]4CC[C@@H](C3)N4CCC#N)c2c1 [Example 6-32]
  THP-1 IL4 pIC50: A (A represents a pEC50 value ≥7.5 (EC50≤32 nM))

## Cc1cc(Nc2cc3nc(CN4CCOCC4)ccc3c(N[C@H]3C[C@H]4CCC[C@@H](C3)N4CC(F)(F)F)n2)n[nH]1 [Example 5-29]
  THP-1 IL4 pIC50: B (B represents a pEC50 value between 6.7 and 7.5 (EC50 between 200 nM and 32 nM))

## Cc1cc(Nc2cc3ncccc3c(N[C@@H]3C[C@H]4CCC[C@@H](C3)N4CC(=O)OC(C)C)n2)n[nH]1 [Example 1-35]
  THP-1 IL4 pIC50: A (A represents a pEC50 value ≥7.5 (EC50≤32 nM))

## Cc1cc(Nc2cc3ncccc3c(N[C@@H]3C[C@H]4CC[C@@H](C3)N4C(C)CC#N)n2)n[nH]1 (stereo partly drawn) [Example 1-21]
  THP-1 IL4 pIC50: A (A represents a pEC50 value ≥7.5 (EC50≤32 nM))

## Cc1cc(Nc2cc3ncccc3c(N[C@@H]3C[C@H]4CC[C@@H](C3)N4C[C@H]3CCC(=O)O3)n2)n[nH]1 [Example 1-29]
  THP-1 IL4 pIC50: C (C represents a pEC50 value <6.7 (EC50>200 nM))

## CCS(=O)(=O)N1[C@@H]2CC[C@H]1C[C@H](Nc1nc(Nc3cc(C)[nH]n3)c(F)c3ncccc13)C2 [Example 8-3]
  THP-1 IL4 pIC50: A (A represents a pEC50 value ≥7.5 (EC50≤32 nM))

## COC(=O)CCCN1[C@@H]2CCC[C@H]1C[C@H](Nc1nc(Nc3cc(C)[nH]n3)cc3ncccc13)C2 [Example 1-34]
  THP-1 IL4 pIC50: C (C represents a pEC50 value <6.7 (EC50>200 nM))

## Cc1cc(Nc2cc3ncccc3c(N[C@@H]3C[C@H]4CC[C@@H](C3)N4CC(C)C)n2)n[nH]1 [Example 1-13]
  THP-1 IL4 pIC50: A (A represents a pEC50 value ≥7.5 (EC50≤32 nM))

## Cc1cc(Nc2cc3nc(CN4CCOCC4)ccc3c(N[C@@H]3C[C@H]4CCC[C@@H](C3)N4CCC#N)n2)n[nH]1 [Example 5-26]
  THP-1 IL4 pIC50: A (A represents a pEC50 value ≥7.5 (EC50≤32 nM))

## Cc1cc(Nc2cc3nc(CS(C)(=O)=O)ccc3c(N[C@@H]3C[C@H]4CC[C@@H](C3)N4CCCF)n2)n[nH]1 [Example 5-42]
  THP-1 IL4 pIC50: C (C represents a pEC50 value <6.7 (EC50>200 nM))

## Cc1cnc2c(F)c(Nc3cc(C)[nH]n3)nc(N[C@@H]3C[C@H]4CC[C@@H](C3)N4S(=O)(=O)c3cccnc3)c2c1 [Example 8-20]
  THP-1 IL4 pIC50: C (C represents a pEC50 value <6.7 (EC50>200 nM))

## Cc1cc(Nc2cc3ncc(S(C)(=O)=O)cc3c(N[C@@H]3C[C@H]4CC[C@@H](C3)N4CCC#N)n2)n[nH]1 [Example 6-50]
  THP-1 IL4 pIC50: C (C represents a pEC50 value <6.7 (EC50>200 nM))

## Cc1cnc2c(F)c(Nc3cc(C)[nH]n3)nc(N[C@@H]3C[C@H]4CC[C@@H](C3)N4S(=O)(=O)N3CC(C#N)C3)c2c1 [Example 8-19]
  THP-1 IL4 pIC50: C (C represents a pEC50 value <6.7 (EC50>200 nM))

## COC(=O)CN1[C@@H]2CC[C@H]1C[C@H](Nc1nc(Nc3cc(C)[nH]n3)cc3ncccc13)C2 [Example 1-1]
  THP-1 IL4 pIC50: C (C represents a pEC50 value <6.7 (EC50>200 nM))

## CCS(=O)(=O)N1[C@@H]2CCC[C@H]1C[C@H](Nc1nc(Nc3cc(C)[nH]n3)cc3nc(CN4CCOCC4)ccc13)C2 [Example 5-23]
  THP-1 IL4 pIC50: A (A represents a pEC50 value ≥7.5 (EC50≤32 nM))

## Cc1cc(Nc2cc3ncccc3c(N[C@@H]3C[C@H]4CCC[C@@H](C3)N4Cc3cccc(O)c3)n2)n[nH]1 [Example 1-49]
  THP-1 IL4 pIC50: A (A represents a pEC50 value ≥7.5 (EC50≤32 nM))

## Cc1cc(Nc2cc3ncccc3c(N[C@@H]3C[C@H]4CC[C@@H](C3)N4CCC(F)(F)F)n2)n[nH]1 [Example 1-10]
  THP-1 IL4 pIC50: C (C represents a pEC50 value <6.7 (EC50>200 nM))

## Cc1cc(Nc2cc3ncc(S(C)(=O)=O)cc3c(N[C@@H]3C[C@H]4CC[C@@H](C3)N4CCF)n2)n[nH]1 [Example 6-54]
  THP-1 IL4 pIC50: C (C represents a pEC50 value <6.7 (EC50>200 nM))

## Cc1cc(Nc2cc3ncccc3c(N[C@@H]3C[C@H]4CC[C@@H](C3)N4C(=O)CN(C)C)n2)n[nH]1 [Example 2-5]
  THP-1 IL4 pIC50: C (C represents a pEC50 value <6.7 (EC50>200 nM))

## Cc1cnc2cc(Nc3cc(C)[nH]n3)nc(N[C@@H]3C[C@H]4CC[C@@H](C3)N4Cc3ccncc3)c2c1 [Example 6-2]
  THP-1 IL4 pIC50: A (A represents a pEC50 value ≥7.5 (EC50≤32 nM))

## Cc1cc(Nc2cc3ncc(S(C)(=O)=O)cc3c(N[C@@H]3C[C@H]4CC[C@@H](C3)N4[C@@H]3CCOC3=O)n2)n[nH]1 [Example 6-57]
  THP-1 IL4 pIC50: C (C represents a pEC50 value <6.7 (EC50>200 nM))

## COC(=O)CN1[C@@H]2CCC[C@H]1C[C@H](Nc1nc(Nc3cc(C)[nH]n3)cc3ncccc13)C2 [Example 1-32]
  THP-1 IL4 pIC50: C (C represents a pEC50 value <6.7 (EC50>200 nM))

## C=CCOC(=O)N1[C@@H]2CC[C@H]1C[C@H](Nc1nc(Nc3cc(C)[nH]n3)cc3ncccc13)C2 [Example 3-4]
  THP-1 IL4 pIC50: A (A represents a pEC50 value ≥7.5 (EC50≤32 nM))

## Cc1cc(Nc2cc3ncccc3c(N[C@@H]3C[C@H]4CC[C@@H](C3)N4C(=O)OCC(C)C)n2)n[nH]1 [Example 3-3]
  THP-1 IL4 pIC50: A (A represents a pEC50 value ≥7.5 (EC50≤32 nM))

## CNC(=O)CN1[C@@H]2CC[C@H]1C[C@H](Nc1nc(Nc3cc(C)[nH]n3)cc3ncccc13)C2 [Example 1-7]
  THP-1 IL4 pIC50: C (C represents a pEC50 value <6.7 (EC50>200 nM))

## Cc1cc(Nc2cc3ncccc3c(N[C@@H]3C[C@H]4CCC[C@@H](C3)N4S(=O)(=O)C3CNC3)n2)n[nH]1 [Example 4-21]
  THP-1 IL4 pIC50: C (C represents a pEC50 value <6.7 (EC50>200 nM))

## Cc1cc(Nc2nc(NC3CC4CCC(C3)N4C(=O)C(C)O)c3cccnc3c2F)n[nH]1 (stereo not drawn) [Example 8-8]
  THP-1 IL4 pIC50: C (C represents a pEC50 value <6.7 (EC50>200 nM))

## C=CCOC(=O)N1[C@@H]2CC[C@H]1C[C@H](Nc1nc(Nc3cc(C)[nH]n3)cc3ncc(C(=O)OC)cc13)C2 [Example 6-40]
  THP-1 IL4 pIC50: A (A represents a pEC50 value ≥7.5 (EC50≤32 nM))

## Cc1cc(Nc2cc3ncccc3c(N[C@@H]3C[C@H]4CCC[C@@H](C3)N4S(=O)(=O)CC(C)C)n2)n[nH]1 [Example 4-17]
  THP-1 IL4 pIC50: A (A represents a pEC50 value ≥7.5 (EC50≤32 nM))

## Cc1cc(Nc2cc3ncc(S(C)(=O)=O)cc3c(N[C@@H]3C[C@H]4CC[C@@H](C3)N4[C@@H]3CCOC3=O)n2)n[nH]1 [Example 6-58]
  THP-1 IL4 pIC50: C (C represents a pEC50 value <6.7 (EC50>200 nM))

## COCCCN1[C@@H]2CC[C@H]1C[C@H](Nc1nc(Nc3cc(C)[nH]n3)cc3ncccc13)C2 [Example 1-15]
  THP-1 IL4 pIC50: C (C represents a pEC50 value <6.7 (EC50>200 nM))

## Cc1cc(Nc2cc3ncccc3c(N[C@@H]3C[C@H]4CCC[C@@H](C3)N4S(C)(=O)=O)n2)n[nH]1 [Example 4-16]
  THP-1 IL4 pIC50: A (A represents a pEC50 value ≥7.5 (EC50≤32 nM))

## COC(=O)c1cnc2cc(Nc3cc(C)[nH]n3)nc(N[C@@H]3C[C@H]4CC[C@@H](C3)N4C(=O)CN(C)C)c2c1 [Example 6-39]
  THP-1 IL4 pIC50: C (C represents a pEC50 value <6.7 (EC50>200 nM))

## Cc1cc(Nc2nc(N[C@@H]3C[C@H]4CC[C@@H](C3)N4C(=O)CN(C)C)c3cccnc3c2F)n[nH]1 [Example 8-7]
  THP-1 IL4 pIC50: C (C represents a pEC50 value <6.7 (EC50>200 nM))

## Cc1cc(Nc2cc3ncccc3c(N[C@@H]3C[C@H]4CCC[C@@H](C3)N4CC(=O)N[C@@H]3CCOC3=O)n2)n[nH]1 [Example 1-41]
  THP-1 IL4 pIC50: C (C represents a pEC50 value <6.7 (EC50>200 nM))
